The record followed here is patent US8197864B2, “Preparation, process and a regenerative method and technique for prevention, treatment and glycemic control of diabetes mellitus” (Arjuna Natural Extracts, priority 2004, dated 2012).

The assay concerns normal rats. The assay can be described thus: Hypoglycemic activity of fractions on blood sugar level in fasted normal rats. In kind it is in vivo, Sprague dawley rats. The note with it: glybenclamide 1 mg/kg, metformin 150 mg/kg; for blood sugar level, 1 hr: 1 hr after single oral dose: fractions 100 mg/kg; for blood sugar level, 3 hr: 3 hr after single oral dose: fractions 100 mg/kg; for blood sugar level, 5 hr: 5 hr after single oral dose: fractions 100 mg/kg; for blood sugar level, Fasting: fasting value before administration, single oral dose: fractions 100 mg/kg; for effect on blood glucose level (in words): single oral dose after 4 hours of fasting: fractions 100 mg/kg. The method, then:
Activity of different extracts were tested using Sprague dawley rats of either sex aged 3 months weighing 180-200 g. After 3-4 hrs of fasting the rats were divided into 7 groups of 6 in each, one group kept as control and 4 groups were given different fractions (Fraction I, Fraction III, Fraction IV and Fraction V) of extract in the dose of 100 mg/kg. Sixth and seventh groups were given standard drugs glybenclamide (1 mg/kg) and metformin (150 mg/kg) respectively.
(See Table II, graph I) The extract/drug was administered orally (single dose) after 4 hours of fasting. […] In FIG. 2, the graph provides blood glucose level in normal rats in mg/dl measured over a duration of 5 hours. The normal rats were fed with different fractions of the extract after four hours of fasting.

The structures appear in SMILES notation.

On to `CN(C)C(=N)N=C(N)N` [Metformin, metformin], for which the “blood sugar level, 1 hr” value was 70.6 ± 3.0 mg/dL; the “blood sugar level, 3 hr” value was 68.3 ± 2.6 mg/dL; the “blood sugar level, 5 hr” value is recorded as “*61.5 ± 3.0 mg/dl”; the “blood sugar level, Fasting” value worked out at 76.6 ± 4.1 mg/dL. The “effect on blood glucose level (in words)” value is “significant (p<0.05) decrease in blood glucose level in the fifth hour”.

In the case of `COc1ccc(Cl)cc1C(=O)NCCc1ccc(S(=O)(=O)NC(=O)NC2CCCCC2)cc1` [Glybenclamide, glybenclamide], the “blood sugar level, 1 hr” value is on record as “*58.8 ± 9.8 mg/dl”; the “blood sugar level, 3 hr” value is recorded as “*43.3 ± 8.2 mg/dl”; the “blood sugar level, 5 hr” value is given as “*43.2 ± 5.8 mg/dl”; the “blood sugar level, Fasting” value stood at 72.6 ± 8.6 mg/dL. Besides, the “effect on blood glucose level (in words)” value was “significant (p<0.05) decrease in blood glucose level in the first hour”.
